# Data as given in ChEMBL document CHEMBL1143633, “Synthesis and cytotoxic evaluation of combretafurazans” (J Med Chem, 2005).
# pIC50: −log10 of the molar value.
# System: SH-SY5Y
# Assay: Cytotoxicity against SH-SY5Y human neuroblastoma cell line was determined
# Format: functional, cell-based
row,SMILES,pIC50
1,COc1ccc(-c2nonc2-c2cc(OC)c(O)c(OC)c2)cc1,6.71
2,COc1ccc(-c2nonc2-c2cc(OC)c(OC)c(OC)c2)cc1N,8.80
3,COc1ccc(-c2nonc2-c2cc(OC)c(OC)c(OC)c2)cc1,8.05
4,COc1ccc(-c2nonc2-c2cc(OC)c(OC)c(OC)c2)cc1[N+](=O)[O-],7.14
5,COc1ccc(-c2nonc2-c2cc(OC)c(O)c(OC)c2)cc1O,7.76
6,COc1ccc(/C=C\c2cc(OC)c(OC)c(OC)c2)cc1O [COMBRETASTATIN A4],8.24
7,COc1ccc(-c2nonc2-c2cc(OC)c(OC)c(OC)c2)cc1O,8.85
8,COc1ccc(C(=O)C(=O)c2cc(OC)c(OC)c(OC)c2)cc1O,6.28
9,COc1ccc(C(=N/O)/C(=N\O)c2cc(OC)c(OC)c(OC)c2)cc1O,6.60
